In US20040219600A1, “Method for determining sensitivity to environmental toxins and susceptibility to parkinson's disease” (priority 2002, published 2004):

Assays:
SNpc neurons = experiment: Count of TH-positive SNpc cells one week after subcutaneous MPTP; conditions: 80 mg/kg MPTP SC (4 x 20 mg/kg)
Experimental: C57BL/6J (Jackson Laboratory), Swiss-Webster (SWR, Harlan) and C57BL/6J×SWR used in these experiments were between 3 and 5 months of age. […] All animals were generated within our vivarium at St. Jude Children's Hospital and were maintained on a 12:12 hour light: dark cycle with ad libitum food and water. Animals were treated in accord with Animal Care and Use Committee requirements. The analysis presented here is based on neuroanatomical and morphometric data from 58 animals, all of which were genotyped as described below.
Each animal was given a total of 80 mg/kg of MPTP, using a dosage regimen of 4 equal subcutaneous injections of 20 mg/kg, one given every 2 hours. Mice were monitored over the next 24 hours for the degree of mortality and the presence of seizures. […]
Prior to counting TH-positive cells, the rostral to caudal boundaries of the SNpc were identified (German, D. C., et al., The Neurotoxin MPTP Causes Degeneration of Specific Nucleus A8, A9 and A10 Dopaminergic Neurons in the Mouse, Neurodegeneration, 5:299-312 (1996)). […] TH-positive cells within the SNpc in one section per slide were counted using a 20× objective (total magnification 200×). […] The number of cells in the SNpc from several animals were also counted using unbiased stereological measurements using the Bioquant image analysis system (R & 1 Biometrics, Nashville, Tenn.).

[1] = test system: embryonic midbrain neurons; conditions: C57B1/6 and Swiss-Webster cultures from embryonic midbrain; cited from earlier work
[2] = test system: postnatal substantia nigra (SN) neurons; experiment: MPTP-induced cell loss in postnatal substantia nigra cultures; assay type: cell-based, mouse; conditions: for loss of T-positive neurons: MPTP 50×10-9
[3] = test system: glutathione S-transferase pi2 (GSTp2) mRNA; experiment: Real time PCR of GSTp2 mRNA in substantia nigra after MPTP; assay type: in vivo, mouse; conditions: for expression of GSTp2: C57B1/6 mice; for GSTp2 levels: SW mice
From the text: Using real time PCR technology we are able to measure relative or absolute mRNA levels in from very small sample pools. The RT-PCR reaction includes a forward primer, a primer with a fluorescent 5′ reporter dye and a 3′ quencher dye, and a reverse primer, constructed to hybridize with the target of interest. The 5′ to 3′ activity of the DNA polymerase cleaves the primer between the reporter and the quencher only if the primer hybridizes to the target. The primer is then displaced from the target, polymerization of the strand continues, and the produce accumulates with each cycle. The exponential amplification of product correlates with the initial number of target molecules when normalized to an endogenous reference, and the threshold cycle calculated (a cycle during which there is an exponential accumulation of produce occurring), as long as the efficiency of the target amplification and the efficiency of the reference amplification are approximately equal. To examine the mRNA expression levels of GSTp2, we used real time PCR analysis to examine baseline levels in C57B1/6 and SW mice. […] The expression pattern in SW mice is different.
Higuchi et al (Higuchi R, et al., Simultaneous Amplification and Detection of Specific DNA Sequences, Biotech. (NY) 10:413-17 (1992)) pioneered the analysis of PCR kinetics by constructing a system that detects PCR products as they accumulate. This “real-time” system includes the intercalator ethidium bromide in each amplification reaction, an adapted thermal cycler to irradiate the samples with ultraviolet light, and detection of the resulting fluorescence with a computer-controlled cooled CCD camera. mRNA amplification produces increasing amounts of double-stranded DNA, which binds ethidium bromide, resulting in an increase in fluorescence. By plotting the increase in fluorescence versus cycle number, this method allows one to make precise quantitative measurements of mRNA expression. […]
Higuchi et al (Higuchi R, et al., Simultaneous Amplification and Detection of Specific DNA Sequences, Biotechnology (N Y) 10:413-17 (1992)) pioneered the analysis of PCR kinetics by constructing a system that detects PCR products as they accumulate. This “real-time” system includes the intercalator ethidium bromide in each amplification reaction, an adapted thermal cycler to irradiate the samples with ultraviolet light, and detection of the resulting fluorescence with a computer-controlled cooled CCD camera. Amplification produces increasing amounts of double-stranded DNA, which binds ethidium bromide, resulting in an increase in fluorescence. By plotting the increase in fluorescence versus cycle number, this method […] allows one to make precise quantitative measurements of mRNA expression.
We will be quantitating levels of glutathione S-transferase pi2 mRNA using this technique in place of traditional Northern blots since we have a limited amount of material to generate mRNA and real-time PCR amplification can give precise results with a small amount of sample material. […] Quantitative measurements are made based on the amount of fluorescence detected by amplification of the intervening primer. Details of this method are presented in numerous papers such as (Freeman W M, et al., Quantitative RT-PCR: Pitfalls and Potential. Biotechniques 26:112-122, 124-115 (1999)) as well as from the ABI website. […]

CN1CC=C(c2ccccc2)CC1 [MPTP, 1-methyl-4-phenyl-1,2,3,6-tetrahydropyridine]
number of SNpc neurons following MPTP treatment (SNpc neurons; C57B1/6 animals): 3300±200 | number of SNpc neurons following MPTP treatment (SNpc neurons; SWR animals): 5480+/−239 | cell death [1]: little cell death | loss of T-positive neurons ([2]; SN cultures derived from SWR mice): 10±3% | loss of T-positive neurons ([2]; SN cultures from C57B1/6 mice): 50±5% | percent cell loss in vitro as fraction of the in vivo value ([2]; in vitro SN culture versus in vivo): approximately 80% | expression of GSTp2 ([3]; 24 hours after MPTP): 50% | expression of GSTp2 ([3]; eight hours after the first injection of MPTP): increases | GSTp2 levels ([3]; 8 hours after administration of MPTP): decrease | GSTp2 levels ([3]; 24 hours after MPTP): return to baseline levels | lower induction of glutathione S-transferase pi2 in C57B1/6 mice compared to Swiss-Webster ([3]; forty eight hours after MPTP administration): 50%
